Measurements taken from patent US8354447B2, “mGLU receptors antagonists for treating disorders associated with mGLU receptors including addiction and depression” (The Scripps Research Institute, priority 2002, dated 2013).
Where “and” joins values, the source holds several entries; their conditions need not be identical. Identical values can stand only once.

Experiments:
male Wistar rats [1] = conditions: nicotine 0.25 mg/kg SC
Description: Trials began with an electrical stimulus followed by a 7.5-s response window within which the animal could make a response to receive a second contingent stimulus identical to the initial noncontingent stimulus. A response during this 7.5-s window was considered a positive response, whereas the lack of a response was considered a negative response. Additional responses during a 2-s period immediately following a positive response had no consequence. The intertrial interval (ITI) that followed either a positive response or the end of the response window (in the case of a negative response) ranged from 7.5 to 12.5 s with an average duration of 10 s. […] Subjects then were tested on a current-threshold procedure in which stimulus intensities were varied during four alternating descending and ascending series with a step size of 5 mA. Blocks of three trials were offered at each current step with the starting current of the first descending series set at 30-40 mA above the subjects' individual baseline thresholds estimated at the end of preliminary training. […] An ascending series was terminated after two consecutive blocks of trials during which the animal made positive responses on at least two out of the three trials or after 15 successive increments were presented. The mean of the four current thresholds from the alternating series was defined as the subject's ICSS threshold for that session. A series was terminated after either 15 stimulus increments (or decrements) had occurred, or after the determination of the threshold for the series (see below). Each test session typically lasted 30 min.

male Wistar rats [2] = assay: ICSS thresholds during spontaneous nicotine withdrawal; assay type: in vivo, rat
Excerpt: Animals were trained to respond according to a modification of the discrete-trial current-threshold procedure of Kornetsky and Esposito (Fed Proc 38:2473-2476, 1979), which has been described in detail previously (Markou and Koob, 1992 Physiol Behav 51:111-119). Briefly, a trial was initiated by the delivery of a non-contingent electrical stimulus. […] The current intensity delivered was adjusted for each animal and typically ranged from 50 to 200 μA. […] After a variable inter-trial interval (7.5-12.5 sec, average of 10 sec), another trial was initiated with the delivery of a non-contingent electrical stimulus. […] Responding during the inter-trial interval delayed the onset of the next trial by 12.5 sec. Current levels were varied in alternating descending and ascending series. A set of three trials was presented for each current intensity. Current intensities were altered in 5 μA steps. In each testing session, four alternating descending-ascending series were presented. […] The overall threshold of the session was defined as the mean of the thresholds for the four individual series. Each testing session was ˜30 min in duration. The latency between the onset of the non-contingent stimulus and a positive response was recorded as the response latency. The response latency for each test session was defined as the mean response latency of all trials during which a positive response occurred. After establishment of stable ICSS reward thresholds, rats were tested in the ICSS procedure once daily except for the spontaneous nicotine withdrawal experiment when rats were tested at time-points according to the experimental design.
Osmotic mini-pumps were surgically removed from nicotine-treated rats (n=15) (defined as rats having been prepared with mini-pumps delivering 3.16 mg/kg/day nicotine free-base for at least seven days) or corresponding control rats (n=17; rats prepared with vehicle-containing mini-pumps). All rats were then tested in the ICSS procedure at 12, 18, 24, 36, 48 and 72 hr after the removal of osmotic mini-pumps. These time points were chosen based on the time course of threshold elevations previously observed during spontaneous nicotine withdrawal after removal of nicotine-delivering osmotic mini-pumps (Harrison et al., 2001, Neuropsychopharmacology 25:55-71; K.L.). […] Thirty min before being tested at the 18 h time-point, one group of nicotine withdrawing and one group of control rats were injected with LY341495 (1 mg/kg); the remaining rats were injected with vehicle.

male Wistar rats [3] = assay: Somatic signs of the nicotine withdrawal syndrome; assay type: in vivo, rat; conditions: six hours after removal of the nicotine-containing minipumps
Description: Rats were placed individually in transparent plastic cylindrical containers (30×38 cm) in which they could move freely. Subjects were habituated to the containers for 10 min each day over 3 days before the first test session. During the test sessions the rats were observed blindly by an experienced observer for 10 min and the frequency of the following signs was recorded based on a checklist of nicotine abstinence signs (Hildebrand et al. 1999; Watkins et al. 2000; Malin 2001): body shakes, chews, cheek tremors, escape attempts, eye blinks, foot licks, gasps, genital licks, head shakes, ptosis, scratches, teeth chattering, writhes and yawns. Multiple successive counts of any sign required a distinct pause between episodes. Ptosis, if present continuously, was only counted once per minute. For statistical analyses, the total number of somatic signs was defined as the sum of individual occurrences of the above mentioned withdrawal signs. Further, the categories of “abdominal constrictions” included gasps and writhes; “facial fasciculation” included cheek tremors, chews, and teeth chattering; and “miscellaneous other signs” included shakes, escape attempts, licks, scratches, and yawns.
Separate drug-naive rats were prepared with osmotic minipumps containing nicotine (3.16 mg/kg per day for 7 days) dissolved in saline. […] Further, this nicotine dose was selected to allow direct comparison of the effects of bupropion on somatic signs (present experiment 4) and on reward threshold elevations (experiment 3 described above) observed during nicotine withdrawal. To induce the somatic signs of nicotine withdrawal the minipumps were removed 6 days and 18 h after implantation. The behavioral observations were conducted 6, 12 and 24 h after the removal of the minipumps. The rats were injected with bupropion (0, 5, 10, 20, 40 mg/kg, IP; n=6-8), 30 min prior to the 12-h time point. The selection of the time points was based on the time-course of the expression of the somatic signs after the termination of nicotine exposure (Epping-Jordan et al. 1998; Harrison et al. 2001a; Semenova and Markou 2003; Skjei and Markou 2003).

Wistar rats [4] = assay: Nicotine self-administration under a fixed ratio schedule (LY341495, LY341495 and MPEP); conditions: MPEP 1 mg/kg alone
drug-naïve rats = conditions: cited from earlier work
mice = conditions: 30 mg/kg i.p.; cited from earlier work
Wistar rats [5] = assay: Cocaine-induced lowering of ICSS thresholds; assay type: in vivo, rat
rats = conditions: 2.5-10 mg/kg i.p.; cited from earlier work
[6] = MPEP 3 mg/kg, 10, 40, 70 and 100 min

Compound	brain reward thresholds (male Wistar rats [1])	ICSS reward threshold elevation (male Wistar rats [2]; 12 h after removal of mini-pumps delivering 3.16 mg/kg/day nicotine free-base, two groups before treatment (n=8, n=7))	ICSS Thresholds (male Wistar rats [2]; withdrawal from chronic nicotine treatment)	total somatic signs of abstinence (male Wistar rats [3])	cocaine or nicotine self-administration (Wistar rats [4])	reward-lowering effect of nicotine in a brain reward stimulation procedure (drug-naïve rats; 0.25 mg/kg nicotine (Harrison et al. 2002))	dose that elevated ICSS thresholds in drug-naïve rats (drug-naïve rats; previous studies (Harrison et al., 2002; Macey et al., 2001)) [mg/kg]	rotarod performance (mice)	duration of cocaine-induced lowering of ICSS thresholds (Wistar rats [5]; MPEP 3 mg/kg)	ICSS Thresholds (Wistar rats [5]; [6])	ICSS response Latencies (Wistar rats [5]; [6])	ICSS Thresholds (Wistar rats [5]; MPEP 9 mg/kg before cocaine 10 mg/kg, compared to cocaine-treated rats that received vehicle)	ICSS Thresholds (Wistar rats [5]; MPEP 9 mg/kg before cocaine 10 mg/kg, compared to saline-treated rats pretreated with vehicle)	magnitude of cocaine-induced lowering of ICSS thresholds (Wistar rats [5]; MPEP 1-9 mg/kg)	ICSS Thresholds (Wistar rats [5]; MPEP alone, 6 and 9 mg/kg significant)	ICSS response Latencies (Wistar rats [5]; MPEP, only the highest dose (9 mg/kg))	exploratory locomotor activity (rats)
CN1CCCC1c1cccnc1 (single isomer, unassigned; (-)) [nicotine, (−)-1-methyl-2-(3-pyridyl) pyrrolidine]	resulted in lowering of brain reward thresholds	117.67±3.1% and 119.93±3.5%	produced robust ICSS threshold elevations compared to control rats	significant increase in the amount of total somatic signs of abstinence	–	–	–	–	–	–	–	–	–	–	–	–	–
Cc1cccc(C#Cc2ccccc2)n1 [MPEP, 2-methyl-6-(phenylethynyl)-pyridine]	–	–	–	–	has no effects on cocaine or nicotine self-administration	had no effect on the reward-lowering effect of 0.25 mg/kg nicotine	≥ 3	had no effect on rotarod performance	did not attenuate the duration of time that cocaine lowered ICSS thresholds	had no effect on ICSS thresholds at any time-point	had no effect on response latencies at any time-point	significantly elevated in cocaine-treated rats that previously received MPEP (9 mg/kg) compared to cocaine-treated rats that received vehicle injection	still significantly lowered compared to saline-treated rats pretreated with vehicle	did not attenuate the magnitude of the lowering in ICSS thresholds observed after systemic cocaine administration	significantly elevated ICSS thresholds	significantly increased response latencies	had no effect on exploratory locomotor activity in rats
